Values of other authors in US6838050B1, “Methods and devices for providing anti-infective activity to a medical device” (Oxibio, Inc., priority 1999, dated 2005).

Assays:
[1] = human

II [free iodine, elemental iodine]
upper daily threshold for total iodine exposure posing no significant health threat [1]: ≤ 1000 micrograms per day | free iodine level at which effective microbial killing occurs (bacteria and viruses): not less than 0.1 ppm | level in solution sufficient to kill bacteria and viruses (bacteria and viruses): A few parts per million | upper limit of solubility: ~320 ppm
